Source: paper PMC7708446, “^18F-meta-fluorobenzylguanidine (^18F-mFBG) to monitor changes in norepinephrine transporter expression in response to therapeutic intervention in neuroblastoma models” (Scientific Reports, 2020)
Marks after values point to notes of the source that are not given here.

Tests used:
SK-N-BE(2)C xenografts [1] = experiment: PET quantification of tumour uptake, SK-N-BE(2)C xenografts; assay type: in vivo, mice
Description: (§1) When the tumours reached approximately 100–200 mm^3, mice were anaesthetised with an isoflurane/O2 mixture (1.5–2.0% v/v) and intravenously injected with either ^18F-mFBG (~ 7.5 MBq) or ^123I-mIBG (~ 20 MBq). Mice were then imaged using an Albira PET/SPECT/CT scanner (Bruker, Coventry, UK). Whole body PET static images were acquired after 1 and 4 h post-injection (p.i.) for 10 min with an energy window of 358 to 664 keV followed by CT acquisition. Acquisition, reconstruction and image analysis were performed as described previously. Following the final scan, the mice were sacrificed and the major organs were excised, weighed and their associated radioactivity was measured using a γ-counter. Biodistribution and image quantification were expressed as a percentage of injected dose per gram of tissue (%ID/g), whereby 1 cm^3 on PET acquisitions were assumed to equal 1 g (n ≥ 3 mice ± SD).

Kelly xenografts = experiment: Ex vivo biodistribution (γ-counter), mice bearing Kelly xenografts; assay type: in vivo; conditions: for ^18F-mFBG biodistribution 4 h p.i., Blood / ^18F-mFBG biodistribution 4 h p.i., Bone / ^18F-mFBG biodistribution 4 h p.i., Brown adipose / ^18F-mFBG biodistribution 4 h p.i., Heart / ^18F-mFBG biodistribution 4 h p.i., Kidney / ^18F-mFBG biodistribution 4 h p.i., Liver / ^18F-mFBG biodistribution 4 h p.i., Lungs / ^18F-mFBG biodistribution 4 h p.i., Muscle / ^18F-mFBG biodistribution 4 h p.i., Pancreas / ^18F-mFBG biodistribution 4 h p.i., Small intestine / ^18F-mFBG biodistribution 4 h p.i., Spleen / ^18F-mFBG biodistribution 4 h p.i., Tumour / ^18F-mFBG biodistribution 4 h p.i., Tumour:blood / ^18F-mFBG biodistribution 4 h p.i., Tumour:muscle: Kelly, 3 days
Description: (§2) All studies were conducted in compliance with licenses issued under the UK Animals (Scientific Procedures) Act 1986 and approved by the Institute of Cancer Research Animal Welfare and Ethical Review Body (AWERB) according to the United Kingdom National Cancer Research Institute Guidelines for Animal Welfare in Cancer Research (project license PCC916B22, Animals in Science Regulation Unit, Home Office Science, London, UK)[65]. Female Nu(NCr)-Foxn1nu mice (5–7 weeks; 20–22 g) obtained from an in-house breeding colony were used in the studies. Animals were housed in a temperature-controlled facility with 12 h on–12 h off light cycle and provided water and laboratory rodent food ad libitum. Subcutaneous xenografts were generated by injection of either Kelly (5 × 10^6/0.1 mL PBS/Matrigel 30% v/v; BD Matrigel Matrix, BD Bioscience, San Jose, California, US) or SK-N-BE(2)C (1 × 10^6/0.1 mL PBS/Matrigel) into the lower flank. For the treatment studies, AZD2014 stock solution in DMSO was diluted in PEG400 to a final concentration of 2 mg/mL (10% DMSO maximum). When tumours reached ~ 100 mm^3 (calliper measurements using formula: Volume = (Width(2) × Length)/2), mice were treated daily, for a total of either 1, 3 or 7 days, by oral gavage with AZD2014 (20 or 25 mg/kg/day) or vehicle control. Mice were monitored daily for body weight or other adverse effects.
as §1

SK-N-BE(2)C xenografts [2] = experiment: Ex vivo biodistribution (γ-counter), mice bearing SK-N-BE(2)C xenografts; assay type: in vivo
Description: as §2, §1

[3] = SK-N-BE(2)C xenografts, 4 h p.i.
[4] = SK-N-BE(2)C, 3 Day AZD2014 (20 mg/kg/day)
[5] = SK-N-BE(2)C, 1 day AZD2014 (20 mg/kg/day)

N=C(N)NCc1cccc([18F])c1 [^18F-mFBG, ^18F-meta-fluorobenzylguanidine]
PET tumour uptake (SK-N-BE(2)C xenografts [1]; 1 h p.i., n = 21): 2.46 ± 0.71 %ID/g | PET tumour uptake (SK-N-BE(2)C xenografts [1]; 4 h p.i., n = 15): 3.88 ± 1.15 %ID/g | tumour uptake (Kelly xenografts; Kelly xenografts, 4 h p.i., n = 3): 0.30 ± 0.14 %ID/g | ^18F-mFBG biodistribution 4 h p.i., Blood (Kelly xenografts; AZD2014 (25 mg/kg/day)): 0.19 ± 0.03 %ID/g | ^18F-mFBG biodistribution 4 h p.i., Bone (Kelly xenografts; AZD2014 (25 mg/kg/day)): 0.99 ± 0.07 %ID/g | ^18F-mFBG biodistribution 4 h p.i., Brown adipose (Kelly xenografts; AZD2014 (25 mg/kg/day)): 7.20 ± 0.88 %ID/g | ^18F-mFBG biodistribution 4 h p.i., Heart (Kelly xenografts; AZD2014 (25 mg/kg/day)): 4.22 ± 0.85 %ID/g | ^18F-mFBG biodistribution 4 h p.i., Kidney (Kelly xenografts; AZD2014 (25 mg/kg/day)): 0.97 ± 0.17 %ID/g | ^18F-mFBG biodistribution 4 h p.i., Liver (Kelly xenografts; AZD2014 (25 mg/kg/day)): 2.08 ± 0.45 %ID/g | ^18F-mFBG biodistribution 4 h p.i., Lungs (Kelly xenografts; AZD2014 (25 mg/kg/day)): 1.31 ± 0.39 %ID/g | ^18F-mFBG biodistribution 4 h p.i., Muscle (Kelly xenografts; AZD2014 (25 mg/kg/day)): 0.64 ± 0.17 %ID/g | ^18F-mFBG biodistribution 4 h p.i., Pancreas (Kelly xenografts; AZD2014 (25 mg/kg/day)): 1.25 ± 0.21 %ID/g | ^18F-mFBG biodistribution 4 h p.i., Small intestine (Kelly xenografts; AZD2014 (25 mg/kg/day)): 7.30 ± 1.11 %ID/g | ^18F-mFBG biodistribution 4 h p.i., Spleen (Kelly xenografts; AZD2014 (25 mg/kg/day)): 4.58 ± 0.77 %ID/g | ^18F-mFBG biodistribution 4 h p.i., Tumour (Kelly xenografts; AZD2014 (25 mg/kg/day)): 0.74 ± 0.25 %ID/g | ^18F-mFBG biodistribution 4 h p.i., Tumour:blood (Kelly xenografts; AZD2014 (25 mg/kg/day)): 4.16 ± 1.89 | ^18F-mFBG biodistribution 4 h p.i., Tumour:muscle (Kelly xenografts; AZD2014 (25 mg/kg/day)): 1.23 ± 0.61 | ^18F-mFBG biodistribution 4 h p.i., Blood (Kelly xenografts; Vehicle): 0.22 ± 0.05 %ID/g | ^18F-mFBG biodistribution 4 h p.i., Bone (Kelly xenografts; Vehicle): 1.43 ± 0.83 %ID/g | ^18F-mFBG biodistribution 4 h p.i., Brown adipose (Kelly xenografts; Vehicle): 5.84 ± 2.44 %ID/g | ^18F-mFBG biodistribution 4 h p.i., Heart (Kelly xenografts; Vehicle): 6.34 ± 1.41 %ID/g | ^18F-mFBG biodistribution 4 h p.i., Kidney (Kelly xenografts; Vehicle): 1.11 ± 0.47 %ID/g | ^18F-mFBG biodistribution 4 h p.i., Liver (Kelly xenografts; Vehicle): 2.37 ± 0.71 %ID/g | ^18F-mFBG biodistribution 4 h p.i., Lungs (Kelly xenografts; Vehicle): 1.52 ± 0.22 %ID/g | ^18F-mFBG biodistribution 4 h p.i., Muscle (Kelly xenografts; Vehicle): 0.74 ± 0.23 %ID/g | ^18F-mFBG biodistribution 4 h p.i., Pancreas (Kelly xenografts; Vehicle): 1.26 ± 0.28 %ID/g | ^18F-mFBG biodistribution 4 h p.i., Small intestine (Kelly xenografts; Vehicle): 6.57 ± 1.12 %ID/g | ^18F-mFBG biodistribution 4 h p.i., Spleen (Kelly xenografts; Vehicle): 3.77 ± 0.82 %ID/g | ^18F-mFBG biodistribution 4 h p.i., Tumour (Kelly xenografts; Vehicle): 0.39 ± 0.13 %ID/g | ^18F-mFBG biodistribution 4 h p.i., Tumour:blood (Kelly xenografts; Vehicle): 1.75 ± 0.29 | ^18F-mFBG biodistribution 4 h p.i., Tumour:muscle (Kelly xenografts; Vehicle): 0.53 ± 0.01 | Tumour-to-blood ratio (SK-N-BE(2)C xenografts [2]; [3]): 17.69 ± 10.00 | tumour-to-muscle ratio (SK-N-BE(2)C xenografts [2]; [3]): 6.24 ± 3.64 | tumour uptake (SK-N-BE(2)C xenografts [2]; SK-N-BE(2)C xenografts, 4 h p.i., n = 5): 2.96 ± 1.38 %ID/g | ^18F-mFBG biodistribution 4 h p.i., Blood (SK-N-BE(2)C xenografts [2]; [4]): 0.16 ± 0.02 %ID/g | ^18F-mFBG biodistribution 4 h p.i., Bone (SK-N-BE(2)C xenografts [2]; [4]): 2.42 ± 2.57 %ID/g | ^18F-mFBG biodistribution 4 h p.i., Brown adipose (SK-N-BE(2)C xenografts [2]; [4]): 5.32 ± 1.51^b %ID/g | ^18F-mFBG biodistribution 4 h p.i., Heart (SK-N-BE(2)C xenografts [2]; [4]): 3.20 ± 0.43^a %ID/g | ^18F-mFBG biodistribution 4 h p.i., Kidney (SK-N-BE(2)C xenografts [2]; [4]): 0.89 ± 0.13 %ID/g | ^18F-mFBG biodistribution 4 h p.i., Liver (SK-N-BE(2)C xenografts [2]; [4]): 1.74 ± 0.23 %ID/g | ^18F-mFBG biodistribution 4 h p.i., Lungs (SK-N-BE(2)C xenografts [2]; [4]): 1.04 ± 0.12 %ID/g | ^18F-mFBG biodistribution 4 h p.i., Muscle (SK-N-BE(2)C xenografts [2]; [4]): 0.55 ± 0.09 %ID/g | ^18F-mFBG biodistribution 4 h p.i., Pancreas (SK-N-BE(2)C xenografts [2]; [4]): 1.29 ± 0.51 %ID/g | ^18F-mFBG biodistribution 4 h p.i., Small intestine (SK-N-BE(2)C xenografts [2]; [4]): 4.88 ± 1.28 %ID/g | ^18F-mFBG biodistribution 4 h p.i., Spleen (SK-N-BE(2)C xenografts [2]; [4]): 2.27 ± 1.06 %ID/g | ^18F-mFBG biodistribution 4 h p.i., Tumour (SK-N-BE(2)C xenografts [2]; [4]): 3.95 ± 1.53 %ID/g | ^18F-mFBG biodistribution 4 h p.i., Tumour:blood (SK-N-BE(2)C xenografts [2]; [4]): 23.76 ± 6.20 | ^18F-mFBG biodistribution 4 h p.i., Tumour:muscle (SK-N-BE(2)C xenografts [2]; [4]): 7.06 ± 1.79 | ^18F-mFBG biodistribution 4 h p.i., Blood (SK-N-BE(2)C xenografts [2]; [5]): 0.18 ± 0.04 %ID/g | ^18F-mFBG biodistribution 4 h p.i., Bone (SK-N-BE(2)C xenografts [2]; [5]): 4.55 ± 2.15^c %ID/g | ^18F-mFBG biodistribution 4 h p.i., Brown adipose (SK-N-BE(2)C xenografts [2]; [5]): 5.47 ± 0.45^b %ID/g | ^18F-mFBG biodistribution 4 h p.i., Heart (SK-N-BE(2)C xenografts [2]; [5]): 4.34 ± 2.38 %ID/g | ^18F-mFBG biodistribution 4 h p.i., Kidney (SK-N-BE(2)C xenografts [2]; [5]): 0.98 ± 0.04 %ID/g | ^18F-mFBG biodistribution 4 h p.i., Liver (SK-N-BE(2)C xenografts [2]; [5]): 1.63 ± 0.69 %ID/g | ^18F-mFBG biodistribution 4 h p.i., Lungs (SK-N-BE(2)C xenografts [2]; [5]): 1.27 ± 0.68 %ID/g | ^18F-mFBG biodistribution 4 h p.i., Muscle (SK-N-BE(2)C xenografts [2]; [5]): 0.59 ± 0.16 %ID/g | ^18F-mFBG biodistribution 4 h p.i., Pancreas (SK-N-BE(2)C xenografts [2]; [5]): 1.09 ± 0.42 %ID/g | ^18F-mFBG biodistribution 4 h p.i., Small intestine (SK-N-BE(2)C xenografts [2]; [5]): 4.79 ± 1.21 %ID/g | ^18F-mFBG biodistribution 4 h p.i., Spleen (SK-N-BE(2)C xenografts [2]; [5]): 2.93 ± 0.82 %ID/g
